Data: ChEMBL document CHEMBL1759853, “Imidazo[1,5-a]pyrazines: orally efficacious inhibitors of mTORC1 and mTORC2” (Bioorg Med Chem Lett, 2011)
Calls of active or inactive are those of the source. The calls are words filed in the database; no cut-off is given here.

What was measured:
[1] = target: T1, Insulin-like growth factor 1 receptor (Homo sapiens, UniProt P08069); assay: Inhibition of IGF-1R by ELISA
cells = conditions: Homo sapiens, HeLa
[2] = Metabolic stability in mouse liver microsome assessed as extraction ratio; assay type: ADME; conditions: liver microsomes
in vitro = conditions: human, liver microsomes
Description: Metabolic stability in human liver microsome assessed as extraction ratio

[3] = target: Tyrosine-protein kinase ABL1 (Homo sapiens, UniProt P00519); assay: Inhibition of Abl
[4] = target: RAF proto-oncogene serine/threonine-protein kinase (Homo sapiens, UniProt P04049); assay: Inhibition of cRaf
Insulin receptor = Insulin receptor (Homo sapiens, UniProt P06213); assay: Inhibition of IR
[5] = target: T2, 3-phosphoinositide-dependent protein kinase 1 (Homo sapiens, UniProt O15530); assay: Inhibition of PDK1
T2 sequence (O15530 whole entry): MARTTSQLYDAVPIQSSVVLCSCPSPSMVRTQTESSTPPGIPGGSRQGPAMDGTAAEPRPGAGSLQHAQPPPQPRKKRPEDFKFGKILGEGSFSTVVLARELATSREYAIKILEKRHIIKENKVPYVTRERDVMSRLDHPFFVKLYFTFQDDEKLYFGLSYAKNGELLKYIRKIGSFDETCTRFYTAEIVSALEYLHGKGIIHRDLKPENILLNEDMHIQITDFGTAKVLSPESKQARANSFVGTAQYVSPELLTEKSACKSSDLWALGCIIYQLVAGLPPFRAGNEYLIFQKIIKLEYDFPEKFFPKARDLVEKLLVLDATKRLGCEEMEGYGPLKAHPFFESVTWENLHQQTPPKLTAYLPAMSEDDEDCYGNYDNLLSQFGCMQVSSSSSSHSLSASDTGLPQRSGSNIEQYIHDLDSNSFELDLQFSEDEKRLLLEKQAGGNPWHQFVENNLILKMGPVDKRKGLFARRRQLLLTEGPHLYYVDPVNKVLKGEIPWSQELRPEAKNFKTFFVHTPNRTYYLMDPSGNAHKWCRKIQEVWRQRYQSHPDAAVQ

[6] = target: Phosphatidylinositol 4,5-bisphosphate 3-kinase catalytic subunit gamma isoform (Homo sapiens, UniProt P48736); assay: Inhibition of PI3Kgamma
[7] = target: Proto-oncogene tyrosine-protein kinase Src (Homo sapiens, UniProt P12931); assay: Inhibition of Src
[8] = Inhibition of mTORC2 dependent P4E-BP1 T37/46 phosphorylation in human MDA-MB-231 cells; assay type: cell-based
[9] = Inhibition of mTORC2 dependent pAkT S473 phosphorylation in human BT-20 cells; assay type: cell-based
MDA-MB-231 [10] = assay: Antiproliferative activity against human MDA-MB-231 cells; assay type: functional, cell-based
[11] = Permeability of the compound by PAMPA method; assay type: ADME; conditions: read-out: permeability
[12] = Aqueous solubility of the compound at pH 7.4; assay type: physicochemical
[13] = Clearance in mouse at 1 mg/kg, iv; assay type: ADME, organism-based; parameters: dose 1 mg/kg, route intravenous; conditions: in vivo
[14] = Half life in mouse at 1 mg/kg, iv; assay type: ADME, organism-based; parameters: dose 1 mg/kg, route intravenous; conditions: in vivo
[15] = AUC (0 to infinity) in mouse at 1 mg/kg, iv; assay type: ADME, organism-based; parameters: time infinity, dose 1 mg/kg, route intravenous; conditions: plasma
[16] = Volume of distribution at steady-state in mouse at 1 mg/kg, iv; assay type: ADME, organism-based; parameters: dose 1 mg/kg, route intravenous; conditions: in vivo, read-out: Vdss
[17] = Cmax in mouse at 20 mg/kg, po; assay type: ADME, organism-based; parameters: dose 20 mg/kg, route oral; conditions: in vivo
[18] = AUC (0 to infinity) in mouse at 20 mg/kg, po; assay type: ADME, organism-based; parameters: time infinity, dose 20 mg/kg, route oral; conditions: plasma
[19] = Bioavailability in mouse at 20 mg/kg, po; assay type: ADME, organism-based; conditions: in vivo
[20] = Plasma protein binding in mouse; assay type: ADME, cell-free; conditions: read-out: PPB (converted)
Mus musculus [21] = assay: […] mouse bearing human MDA-MB-231 cells assessed as inhibition of 4E-BP1 T37/46 phosphorylation at 100 mg/kg, po after 4 hrs; assay type: functional, organism-based; parameters: dose 100 mg/kg
Mus musculus [22] = assay: […] mouse bearing human MDA-MB-231 cells assessed as inhibition of 4E-BP1 T37/46 phosphorylation at 100 mg/kg, po after 8 hrs; assay type: functional, organism-based; parameters: dose 100 mg/kg
[23] = target: T1, Insulin-like growth factor 1 receptor; assay: Inhibition of IGF-1R
[24] = target: Dual specificity mitogen-activated protein kinase kinase 1 (Homo sapiens, UniProt Q02750); assay: Inhibition of MEK1
[25] = target: Vascular endothelial growth factor receptor 2 (Homo sapiens, UniProt P35968); assay: Inhibition of KDR
[26] = Clearance in mouse at 5 mg/kg, iv; assay type: ADME, organism-based; parameters: dose 5 mg/kg, route intravenous; conditions: in vivo
[27] = Half life in mouse at 5 mg/kg, iv; assay type: ADME, organism-based; parameters: dose 5 mg/kg, route intravenous; conditions: in vivo
[28] = AUC (0 to infinity) in mouse at 5 mg/kg, iv; assay type: ADME, organism-based; parameters: dose 5 mg/kg, route intravenous, time infinity; conditions: plasma
[29] = Volume of distribution at steady-state in mouse at 5 mg/kg, iv; assay type: ADME, organism-based; parameters: dose 5 mg/kg, route intravenous; conditions: in vivo, read-out: Vdss
MDA-MB-231 [30] = assay: Antitumor activity against human MDA-MB-231 cells xenografted in CD-1 mouse at 100 mg/kg, po QD for 14 days; assay type: functional
Mus musculus [31] = assay: Toxicity in CD-1 mouse xenografted with human MDA-MB-231 cells assessed as reduction in body weight at 100 mg/kg, po QD for 14 days; assay type: organism-based; parameters: dose 100 mg/kg, route oral; conditions: in vivo, 336 h
[32] = target: Epidermal growth factor receptor (Homo sapiens, UniProt P00533)
MDA-MB-231 [33] = assay: Inhibition of mTORC2 dependent P4E-BP1 T37/46 phosphorylation in human MDA-MB-231 cells at 20 uM; assay type: cell-based
BT-20 = assay: Inhibition of mTORC2 dependent pAkT S473 phosphorylation in human BT-20 cells at 20 uM; assay type: cell-based

T1 sequence (P08069 31-736 limits assumed): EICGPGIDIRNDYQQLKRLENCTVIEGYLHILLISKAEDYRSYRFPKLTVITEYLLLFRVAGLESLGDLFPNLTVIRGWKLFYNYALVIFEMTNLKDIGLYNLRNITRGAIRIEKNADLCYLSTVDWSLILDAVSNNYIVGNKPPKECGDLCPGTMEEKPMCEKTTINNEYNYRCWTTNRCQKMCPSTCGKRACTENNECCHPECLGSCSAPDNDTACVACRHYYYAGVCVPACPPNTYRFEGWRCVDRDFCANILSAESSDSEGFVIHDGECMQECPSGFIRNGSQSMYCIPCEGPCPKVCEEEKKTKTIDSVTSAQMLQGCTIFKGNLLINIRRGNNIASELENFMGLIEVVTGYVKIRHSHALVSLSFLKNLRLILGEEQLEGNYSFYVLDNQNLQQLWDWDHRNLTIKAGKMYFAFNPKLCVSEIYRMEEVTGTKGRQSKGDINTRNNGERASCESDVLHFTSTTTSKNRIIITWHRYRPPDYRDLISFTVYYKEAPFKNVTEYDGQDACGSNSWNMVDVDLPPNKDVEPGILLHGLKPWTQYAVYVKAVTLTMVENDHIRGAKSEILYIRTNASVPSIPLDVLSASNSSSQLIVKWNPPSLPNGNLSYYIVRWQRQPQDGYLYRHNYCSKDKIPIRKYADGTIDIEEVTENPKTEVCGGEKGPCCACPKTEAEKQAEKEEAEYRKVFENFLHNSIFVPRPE
T1 sequence (P08069 741-1367 limits assumed): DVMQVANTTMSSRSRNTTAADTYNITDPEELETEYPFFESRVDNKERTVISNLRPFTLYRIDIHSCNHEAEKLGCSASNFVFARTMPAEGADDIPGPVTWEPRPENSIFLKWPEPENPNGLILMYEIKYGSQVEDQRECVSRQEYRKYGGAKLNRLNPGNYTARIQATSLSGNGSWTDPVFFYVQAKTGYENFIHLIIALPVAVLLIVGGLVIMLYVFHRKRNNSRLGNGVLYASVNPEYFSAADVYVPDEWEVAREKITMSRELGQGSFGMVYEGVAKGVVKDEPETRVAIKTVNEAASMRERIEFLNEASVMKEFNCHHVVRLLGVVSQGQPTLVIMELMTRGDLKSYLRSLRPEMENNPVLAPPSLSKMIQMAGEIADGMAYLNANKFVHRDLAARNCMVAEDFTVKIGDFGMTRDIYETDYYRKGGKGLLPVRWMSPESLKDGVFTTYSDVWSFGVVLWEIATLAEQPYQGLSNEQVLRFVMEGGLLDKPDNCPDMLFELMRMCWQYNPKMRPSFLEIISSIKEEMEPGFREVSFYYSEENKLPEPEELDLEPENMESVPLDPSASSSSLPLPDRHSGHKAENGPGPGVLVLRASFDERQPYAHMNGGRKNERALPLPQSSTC
Sequence of Tyrosine-protein kinase ABL1 (P00519 whole entry): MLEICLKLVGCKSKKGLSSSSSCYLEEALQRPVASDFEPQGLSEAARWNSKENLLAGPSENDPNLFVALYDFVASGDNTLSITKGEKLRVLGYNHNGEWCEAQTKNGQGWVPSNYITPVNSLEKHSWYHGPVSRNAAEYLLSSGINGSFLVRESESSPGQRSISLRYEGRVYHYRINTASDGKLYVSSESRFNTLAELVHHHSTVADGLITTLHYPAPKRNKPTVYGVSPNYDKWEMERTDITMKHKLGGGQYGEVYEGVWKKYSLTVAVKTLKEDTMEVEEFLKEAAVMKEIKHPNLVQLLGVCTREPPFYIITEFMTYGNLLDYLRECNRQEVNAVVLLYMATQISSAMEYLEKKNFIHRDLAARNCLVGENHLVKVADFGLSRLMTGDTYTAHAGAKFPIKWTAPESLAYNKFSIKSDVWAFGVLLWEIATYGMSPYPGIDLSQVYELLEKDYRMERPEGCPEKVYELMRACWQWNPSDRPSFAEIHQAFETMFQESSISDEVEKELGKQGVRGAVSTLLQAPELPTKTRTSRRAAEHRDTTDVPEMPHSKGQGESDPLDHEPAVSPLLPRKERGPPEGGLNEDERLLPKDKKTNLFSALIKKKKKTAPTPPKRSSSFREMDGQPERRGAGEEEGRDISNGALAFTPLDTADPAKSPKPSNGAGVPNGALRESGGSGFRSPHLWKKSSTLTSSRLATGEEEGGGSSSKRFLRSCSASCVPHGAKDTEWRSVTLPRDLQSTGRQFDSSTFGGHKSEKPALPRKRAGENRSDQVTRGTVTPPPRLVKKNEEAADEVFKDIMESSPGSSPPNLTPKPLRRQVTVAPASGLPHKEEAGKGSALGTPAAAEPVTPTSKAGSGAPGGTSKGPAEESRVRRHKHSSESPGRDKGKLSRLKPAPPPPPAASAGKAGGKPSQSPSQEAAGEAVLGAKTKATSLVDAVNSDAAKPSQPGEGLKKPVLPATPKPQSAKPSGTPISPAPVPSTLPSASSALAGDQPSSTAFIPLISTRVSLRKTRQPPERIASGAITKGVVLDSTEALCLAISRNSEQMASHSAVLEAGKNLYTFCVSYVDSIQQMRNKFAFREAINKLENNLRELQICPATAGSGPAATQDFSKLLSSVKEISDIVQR
Sequence of Phosphatidylinositol 4,5-bisphosphate 3-kinase catalytic subunit gamma isoform (P48736 whole entry, canonical isoform): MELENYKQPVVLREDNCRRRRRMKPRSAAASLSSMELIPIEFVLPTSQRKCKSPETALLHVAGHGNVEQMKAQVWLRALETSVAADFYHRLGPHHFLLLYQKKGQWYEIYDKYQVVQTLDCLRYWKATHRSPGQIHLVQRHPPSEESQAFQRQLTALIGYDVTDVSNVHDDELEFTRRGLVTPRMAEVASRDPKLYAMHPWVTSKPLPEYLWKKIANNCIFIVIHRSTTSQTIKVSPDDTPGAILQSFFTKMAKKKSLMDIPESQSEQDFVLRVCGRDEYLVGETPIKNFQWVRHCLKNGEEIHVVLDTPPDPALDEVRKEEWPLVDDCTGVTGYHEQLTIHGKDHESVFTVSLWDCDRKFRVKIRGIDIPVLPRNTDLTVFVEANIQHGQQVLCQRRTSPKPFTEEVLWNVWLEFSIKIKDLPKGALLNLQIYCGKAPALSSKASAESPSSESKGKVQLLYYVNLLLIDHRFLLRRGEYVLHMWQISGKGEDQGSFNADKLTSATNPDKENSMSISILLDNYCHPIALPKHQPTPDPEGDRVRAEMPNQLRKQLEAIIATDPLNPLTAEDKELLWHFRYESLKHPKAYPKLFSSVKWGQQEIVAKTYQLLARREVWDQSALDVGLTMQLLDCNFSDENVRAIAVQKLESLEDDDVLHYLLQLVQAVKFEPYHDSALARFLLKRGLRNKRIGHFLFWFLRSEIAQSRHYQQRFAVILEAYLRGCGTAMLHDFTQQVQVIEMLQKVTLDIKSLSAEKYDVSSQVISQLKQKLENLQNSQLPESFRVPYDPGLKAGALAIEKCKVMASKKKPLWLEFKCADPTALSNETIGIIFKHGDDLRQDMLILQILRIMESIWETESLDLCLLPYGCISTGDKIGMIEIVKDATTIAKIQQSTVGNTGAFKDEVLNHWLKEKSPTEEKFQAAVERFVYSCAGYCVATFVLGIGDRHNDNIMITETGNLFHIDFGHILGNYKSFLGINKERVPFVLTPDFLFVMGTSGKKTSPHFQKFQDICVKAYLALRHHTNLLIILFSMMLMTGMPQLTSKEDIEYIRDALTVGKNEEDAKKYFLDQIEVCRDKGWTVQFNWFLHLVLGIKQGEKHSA
Sequence of Dual specificity mitogen-activated protein kinase kinase 1 (Q02750 whole entry): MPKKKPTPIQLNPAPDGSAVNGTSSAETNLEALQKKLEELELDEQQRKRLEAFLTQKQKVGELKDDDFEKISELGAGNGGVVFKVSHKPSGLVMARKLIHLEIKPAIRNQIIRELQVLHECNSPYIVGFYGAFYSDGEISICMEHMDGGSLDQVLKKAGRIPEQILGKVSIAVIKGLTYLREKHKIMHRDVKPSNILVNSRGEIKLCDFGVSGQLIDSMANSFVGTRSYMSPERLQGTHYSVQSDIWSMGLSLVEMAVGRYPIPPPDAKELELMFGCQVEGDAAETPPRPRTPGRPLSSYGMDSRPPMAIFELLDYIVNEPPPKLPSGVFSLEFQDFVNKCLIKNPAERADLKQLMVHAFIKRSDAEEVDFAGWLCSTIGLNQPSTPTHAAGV
Sequence of RAF proto-oncogene serine/threonine-protein kinase (P04049 whole entry): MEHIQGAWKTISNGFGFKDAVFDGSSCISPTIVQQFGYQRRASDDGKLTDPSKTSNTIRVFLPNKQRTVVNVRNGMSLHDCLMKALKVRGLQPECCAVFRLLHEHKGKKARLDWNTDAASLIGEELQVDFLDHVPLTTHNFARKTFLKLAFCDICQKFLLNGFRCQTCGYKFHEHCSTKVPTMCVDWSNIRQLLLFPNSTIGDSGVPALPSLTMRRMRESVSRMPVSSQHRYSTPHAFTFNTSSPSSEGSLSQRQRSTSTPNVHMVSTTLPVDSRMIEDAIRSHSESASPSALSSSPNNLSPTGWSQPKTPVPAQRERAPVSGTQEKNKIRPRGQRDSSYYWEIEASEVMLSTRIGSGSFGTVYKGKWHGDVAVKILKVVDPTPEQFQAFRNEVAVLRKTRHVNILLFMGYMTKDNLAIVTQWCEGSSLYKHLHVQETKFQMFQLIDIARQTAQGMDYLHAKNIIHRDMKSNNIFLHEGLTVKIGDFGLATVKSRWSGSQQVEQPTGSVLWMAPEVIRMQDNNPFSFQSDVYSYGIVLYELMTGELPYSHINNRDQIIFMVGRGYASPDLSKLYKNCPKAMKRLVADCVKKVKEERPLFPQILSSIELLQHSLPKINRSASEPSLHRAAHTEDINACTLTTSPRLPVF

Nc1nccn2c(C3CCC3)nc(-c3ccc4cccnc4c3)c12
IC50 [1]: > 10000 nM | IC50 (cells): 900 nM

Nc1nccn2c(C3CCC3)nc(-c3cnc4ccccc4c3)c12
IC50 (cells): 2350 nM

CC(=O)N1CCC(c2nc(-c3cc4ccccc4[nH]3)c3c(N)nccn23)CC1
hepatic extraction ratio [2]: 0.43 | IC50 (cells): 690 nM | hepatic extraction ratio (in vitro): 0.44

Nc1nccn2c1c(-c1cc3ccccc3[nH]1)nc2[C@H]1C[C@@H](O)C1
hepatic extraction ratio [2]: 0.6 | IC50 (cells): 370 nM | hepatic extraction ratio (in vitro): 0.74

Nc1nccn2c(C3CCC3)nc(-c3ccc4ncccc4c3)c12
IC50 (cells): 7150 nM

Nc1nccn2c(C3CCC3)nc(-c3ccc4occc4c3)c12
IC50 (cells): > 10000 nM

Nc1nccn2c(C3CCC3)nc(-c3ccc4sccc4c3)c12
IC50 (cells): 1300 nM

CN1CCN(C(=O)N2CCC(c3nc(-c4cc5ccccc5[nH]4)c4c(N)nccn34)CC2)CC1
IC50 (cells): 1370 nM

Nc1nccn2c(C3CCC3)nc(-c3c[nH]c4ccccc34)c12
IC50 (cells): > 10000 nM

Nc1nccn2c(C3CCC3)nc(-c3ccc4cc[nH]c4c3)c12
IC50 (cells): 3120 nM

CC(=O)NC[C@H]1CC[C@H](c2nc(-c3cc4ccccc4[nH]3)c3c(N)nccn32)CC1
IC50 [3]: 1960 nM | IC50 [4]: 180 nM | IC50 (Insulin receptor): 22600 nM | IC50 [5]: 11200 nM | IC50 [6]: > 30000 nM | IC50 [7]: 5300 nM | IC50 [8]: 7400 nM | IC50 [9]: 1260 nM | IC50 (MDA-MB-231 [10]): 7400 nM | Papp [11]: > 25 ×10⁻⁶ cm/s | solubility [12]: > 100 µM | clearance [13]: 2 mL/min/kg | half-life [14]: 1.6 h | AUC(0-inf) [15]: 6880 ng·h/mL | Vd [16]: 0.2 L/kg | Cmax [17]: 30.6 µM | AUC(0-inf) [18]: 73800 ng·h/mL | bioavailability [19]: 54% | fraction unbound [20]: 0.097 | Activity (Mus musculus [21]): Active | Activity (Mus musculus [22]): Active | IC50 [23]: 2720 nM | IC50 [24]: 960 nM | IC50 (cells): 210 nM

Nc1nccn2c(C3CCNCC3)nc(-c3cc4ccccc4[nH]3)c12
hepatic extraction ratio [2]: 0.64 | IC50 (cells): > 10000 nM | hepatic extraction ratio (in vitro): 0.18

CN(C)C(=O)N1CCC(c2nc(-c3cc4ccccc4[nH]3)c3c(N)nccn23)CC1
hepatic extraction ratio [2]: 0.67 | IC50 [3]: > 10000 nM | IC50 [4]: 1700 nM | IC50 (Insulin receptor): > 30000 nM | IC50 [25]: > 10000 nM | IC50 [5]: > 30000 nM | IC50 [6]: > 30000 nM | IC50 [7]: 770 nM | IC50 [8]: 7800 nM | IC50 [9]: 1380 nM | IC50 (MDA-MB-231 [10]): 9300 nM | Papp [11]: > 25 ×10⁻⁶ cm/s | solubility [12]: > 100 µM | clearance [26]: 7 mL/min/kg | half-life [27]: 0.9 h | AUC(0-inf) [28]: 12100 ng·h/mL | Vd [29]: 0.4 L/kg | Cmax [17]: 35.9 µM | AUC(0-inf) [18]: 49400 ng·h/mL | bioavailability [19]: 102% | fraction unbound [20]: 0.119 | Activity (Mus musculus [21]): Active | Activity (Mus musculus [22]): Active | Activity (MDA-MB-231 [30]): 94% | Activity (Mus musculus [31]): Toxic | IC50 [23]: > 30000 nM | IC50 [24]: > 10000 nM | IC50 [32]: > 10000 nM | IC50 (cells): 120 nM | hepatic extraction ratio (in vitro): 0.68

CO[C@H]1C[C@@H]2CC[C@@H](C)[C@@](O)(O2)C(=O)C(=O)N2CCCC[C@H]2C(=O)O[C@H]([C@H](C)C[C@@H]2CC[C@@H](O)[C@H](OC)C2)CC(=O)[C@H](C)/C=C(\C)[C@@H](O)[C@@H](OC)C(=O)[C@H](C)C[C@H](C)/C=C/C=C/C=C/1C
inhibition (MDA-MB-231 [33]): 40% | inhibition (BT-20): inactive

Nc1nccn2c(C3CCC3)nc(-c3cccc(O)c3)c12
IC50 (cells): 1970 nM

CS(=O)(=O)NC[C@H]1CC[C@H](c2nc(-c3cc4ccccc4[nH]3)c3c(N)nccn32)CC1
IC50 (cells): 410 nM

Nc1nccn2c1c(-c1cc3ccccc3[nH]1)nc2[C@H]1CC[C@H](CO)CC1
hepatic extraction ratio [2]: 0.67 | IC50 (cells): 220 nM | hepatic extraction ratio (in vitro): 0.74

CC(=O)N1CCN([C@H]2C[C@@H](c3nc(-c4cc5ccccc5[nH]4)c4c(N)nccn43)C2)CC1
hepatic extraction ratio [2]: 0.59 | IC50 (cells): 350 nM | hepatic extraction ratio (in vitro): 0.58

CN1CCN([C@H]2C[C@@H](c3nc(-c4cc5ccccc5[nH]4)c4c(N)nccn43)C2)CC1
hepatic extraction ratio [2]: 0.2 | IC50 (cells): 4000 nM | hepatic extraction ratio (in vitro): 0.44

Nc1nccn2c(C3CCC3)nc(-c3cc4cccnc4[nH]3)c12
IC50 (cells): 400 nM

Nc1nccn2c(C3CCC3)nc(-c3cc4ccccc4s3)c12
IC50 (cells): 130 nM

Nc1nccn2c1c(-c1cc3ccccc3[nH]1)nc2[C@H]1C[C@@H](CO)C1
hepatic extraction ratio [2]: 0.79 | IC50 (cells): 320 nM | hepatic extraction ratio (in vitro): 0.7

Nc1nccn2c(C3CCC3)nc(-c3ccc4[nH]ccc4c3)c12
IC50 (cells): 2480 nM

NC[C@H]1CC[C@H](c2nc(-c3cc4ccccc4[nH]3)c3c(N)nccn32)CC1
hepatic extraction ratio [2]: 0.28 | IC50 (cells): 1000 nM | hepatic extraction ratio (in vitro): 0.34

Nc1nccn2c1c(-c1cc3ccccc3[nH]1)nc2[C@H]1CC[C@H](CNC(=O)C2CCC2)CC1
hepatic extraction ratio [2]: 0.79 | IC50 (cells): 170 nM | hepatic extraction ratio (in vitro): 0.74

Nc1nccn2c1c(-c1cc3ccccc3[nH]1)nc2[C@H]1CC[C@H](CNC=O)CC1
hepatic extraction ratio [2]: 0.51 | IC50 (cells): 150 nM | hepatic extraction ratio (in vitro): 0.64

Nc1nccn2c(C3CCC3)nc(-c3cccc4ccccc34)c12
IC50 (cells): > 10000 nM

Nc1nccn2c(C3CCC3)nc(-c3cc4ccccc4o3)c12
IC50 (cells): 260 nM

Nc1nccn2c(C3CCC3)nc(-c3ccc4ccc(-c5ccccc5)nc4c3)c12
IC50 (cells): > 9000 nM

Nc1nccn2c(C3CCC3)nc(-c3ccc4ccccc4c3)c12
IC50 (cells): 1360 nM

Nc1nccn2c1c(-c1cc3ccccc3[nH]1)nc2[C@H]1CC[C@H](CNC(=O)c2ccoc2)CC1
hepatic extraction ratio [2]: 0.76 | IC50 (cells): 90 nM | hepatic extraction ratio (in vitro): 0.78

Nc1nccn2c(C3CCC3)nc(-c3cc4ccccc4[nH]3)c12
hepatic extraction ratio [2]: 0.94 | IC50 (cells): 460 nM | hepatic extraction ratio (in vitro): 0.92

Nc1nccn2c(C3CCC3)nc(-c3ccc4nccnc4c3)c12
IC50 (cells): 2600 nM
